Measurements as given in patent US6939707B2, “Isolated nucleic acid molecules which encode GAGE genes and uses thereof” (Ludwig Institute for Cancer Research, priority 1993, dated 2005).
Ends that are not written are not given here.

Columns and labels:
Assay type in all cases: cell-based, human
CTL 76/6 = test: TNF release by CTL 76/6 on peptide-pulsed COS-7 cells transfected with HLA-Cw6 cDNA; settings: peptide 20 ug/ml, 90 minutes at 37° C., 3000 CTLs, TNF in supernatant after eighteen hours tested on WEHI-164-13 cells
Procedure: Each peptide was pulsed into COS-7 cells previously transfected with HLA-Cw6 cDNA, and combined with CTL 76/6 to determine if TNF release would be induced. Peptides (20 ug/ml) were added to COS-7 cells which had been transfected with the HLA-Cw6 cDNA twenty-four hours previously After incubation at 37° C. for 90 minutes, medium was discarded, and 3000 CTLs were added in 100 microliters of medium, containing 25 units/ml of IL-2. Eighteen hours later, TNF content of supernatant was tested via determining toxicity on WEHI-164-13 cells. […] The second peptide was used for further experiments.

HLA-A29 = test: 51Cr release lytic assay with GAGE-3 to 6 derived peptides (HLA-A29); settings: FIG. 8; successive deletions of SEQ ID NO: 21
Procedure: The lysis assay employed was a chromium release assay following Herin et at., Int. […] The target melanoma cells were grown in vitro, and then resuspended at 10^7 cells/ml in DMEM, supplemented with 10 mM Hepes and 30% FCS, and incubated for 45 minutes at 37° C. with 200 μCi/ml of Na(^51Cr)O4. Labeled cells were washed three times with DMEM supplemented with 10 mM Hepes. These were then resuspended in DMEM supplemented with 10 mM Hepes and 10% FCS, after which 100 ul aliquots containing 10^3 cells, were distributed into 96 well microplates. Samples of PBLs were added in 100 ul of the same medium, and assays were earned out in duplicate. Plates were centrifuged for 4 minutes at 100 g, and incubated for four hours at 37° C. in an 8% CO2 atmosphere.
The peptide (SEQ ID NO: 21) was tested in a ^51Cr release experiment, following the method described supra.
Successive deletions were prepared, and tested for their ability to provoke lysis, again using the ^51Cr lytic assay.

LB33-EBV cells = test: 51Cr release lysis of peptide-incubated LB33-EBV cells (HLA-Cw6 positive) by CTL 76/6; settings: CTL 76/6, effector:target ratio 10:1, four hours at 37° C., varying peptide concentration (FIG. 3)
Procedure: The lysis assay employed was a chromium release assay following Herin et at., Int. J. Cancer 39;390-396 (1987), the disclosure of which is incorporated by reference. The assay, however, is described herein. The target melanoma cells were grown in vitro, and then resuspended at 10^7 cells/ml in DMEM, supplemented with 10 mM Hepes and 30% FCS, and incubated for 45 minutes at 37° C. with 200 μCi/ml of Na(^51Cr)O4. Labeled cells were washed three times with DMEM supplemented with 10 mM Hepes. These were then resuspended in DMEM supplemented with 10 mM Hepes and 10% FCS, after which 100 ul aliquots containing 10^3 cells, were distributed into 96 well microplates. Samples of PBLs were added in 100 ul of the same medium, and assays were earned out in duplicate. Plates were centrifuged for 4 minutes at 100 g, and incubated for four hours at 37° C. in an 8% CO2 atmosphere.
Plates were centrifuged again, and 100 ul aliquots of supernatant were collected and counted. Percentage of ^51Cr release was calculated as follows: [formula] where ER is observed, experimental ^51Cr release, SR is spontaneous release measured by incubating 10^3 labeled cells in 200 ul of medium alone, and MR is maximum release, obtained by adding 100 ul 0.3% Triton X-100 to target cells.
Various peptides based upon SEQ ID NO: 13 were synthesized, and tested, some of which are presented below. To carry out these tests ^51Cr labelled LB33-EBV cells, which are HLA-Cw6 positive, were incubated with one of the following peptides:
Levels of lysis for positive (“F^+”, MZ2-MEL.3.1), and negative (“F”; MZ2-MEL.2.2.5) control cells are indicated, in FIG. 3.

HLA-Cw6 positive cells = test: Lysis of peptide-pulsed HLA-Cw6 positive cells by CTL 82/31; settings: HLA-Cw6 positive cells pulsed with peptide; results not reported in detail
Procedure: In results not reported here, a second CTL was tested (CTL 82/31).

Which TNF induced (CTL 76/6) does the source give for MSWRGRSTYRPRPRR [SEQ ID NO: 12] here?
Its TNF induced is “less than 10 pg/ml”.

With RSTYYWPRPRRYVQ [SEQ ID NO: 21] as the substance, how does the “ability to provoke lysis (51Cr release)” value (HLA-A29) read?
The value was “did provoke lysis”.

Which “CTL lysis (51Cr release)” value (LB33-EBV cells) does the source give for TRPRPRRYV [SEQ ID NO: 6] here?
The value was “induced CTL lysis albeit to a lesser extent”.

For TYRPRPRRY [SEQ ID NO: 5], which “CTL lysis (51Cr release)” value (LB33-EBV cells) is on record?
Its value is “induced CTL lysis albeit to a lesser extent”.

TYRPRPRRYVEPPEMI [SEQ ID NO: 13] was tested. Which TNF induced (CTL 76/6) did it give?
The TNF induced was “more than 30 pg/ml”.

How did the “ability to provoke lysis (51Cr release)” value (HLA-A29) turn out when “Tyr Tyr Trp Pro Arg Pro Arg Arg Tyr [SEQ ID NO: 22]” was run?
The value was “shortest peptide to provoke lysis”.

For “YRPRPRRY [SEQ ID NO: 4, octamer tumor rejection antigen presented by HLA-Cw6]”, which “lysis by second CTL (CTL 82/31)” value (HLA-Cw6 positive cells) is on record?
Its value is “lysed HLA-Cw6 positive cells”.

What about the “CTL lysis (51Cr release)” value (LB33-EBV cells) of the same substance?
Its value is “the best peptide”.
